Measured values taken from patent US20250147039A1, “Compounds for complexation of rare earth elements and/or s-, p-, d- block metals, their coordination compounds, peptide conjugates, method of their preparation and use thereof” (USTAV ORGANICKE CHEMIE A BIOCHEMIE AV CR V.V.I., priority 2021, published 2025).

Experiments:
[1] = Formation of 1,5-cz-[M(Lig)] from Lig and M^III ions (metal dependent click-zip) (Charts 4, 5); format: physicochemical; settings: MOPS/NaOH buffer pH 7.0; for conversion to 1,5-cz-[M(Lig)], Sc^III / conversion to 1,5-cz-[M(Lig)], Y^III: TD728, TD827 in 50% i-PrOH; for conversion to 1,5-cz-[M(Lig)], Y^III: TD714 sum of two diastereoisomers
[2] = Formation of 1,5-cz-[Ln(Lig)] from Lig and Ln^III ions (metal dependent click-zip), MOPS/NaOH buffer pH 7.0, analytical HPLC (Charts 1, 2); settings: MOPS/NaOH buffer pH 7.0

- conversion to 1,5-cz-[Ln(Lig)] with hydrolysed group in the side chain, Sc^III ([1]; 1 week at 80° C.): 60%
- conversion to 1,5-cz-[Ln(Lig)] with hydrolysed group in the side chain, Y^III ([1]; 1 week at 80° C.): 87%
- conversion to 1,5-cz-[M(Lig)], Sc^III ([1]; 1 week at 80° C.): 0%
- conversion to 1,5-cz-[M(Lig)], Y^III ([1]; 1 week at 80° C.): 0%
- conversion to 1,5-cz-[Ln(Lig)] with hydrolysed group in the side chain, Sc^III ([1]; 1 hour at 80° C.): 0%
- conversion to 1,5-cz-[Ln(Lig)] with hydrolysed group in the side chain, Y^III ([1]; 1 hour at 80° C.): 1%
- conversion to 1,5-cz-[M(Lig)], Sc^III ([1]; 1 hour at 80° C.): 0%
- conversion to 1,5-cz-[M(Lig)], Y^III ([1]; 1 hour at 80° C.): 2%
- conversion to 1,5-cz-[Ln(Lig)] with hydrolysed group in the side chain, Ce^III ([2]; after 1 week at 80° C.): 8%
- conversion to 1,5-cz-[Ln(Lig)], Ce^III ([2]; after 1 week at 80° C.): 0%
- conversion to 1,5-cz-[Ln(Lig)] with hydrolysed group in the side chain, Ce^III ([2]; after 1 hour at 80° C.): 0%
- conversion to 1,5-cz-[Ln(Lig)], Ce^III ([2]; after 1 hour at 80° C.): 0%
- conversion to 1,5-cz-[Ln(Lig)] with hydrolysed group in the side chain, Dy^III ([2]; after 1 week at 80° C.): 82%
- conversion to 1,5-cz-[Ln(Lig)], Dy^III ([2]; after 1 week at 80° C.): 0%
- conversion to 1,5-cz-[Ln(Lig)] with hydrolysed group in the side chain, Dy^III ([2]; after 1 hour at 80° C.): 0%
- conversion to 1,5-cz-[Ln(Lig)], Dy^III ([2]; after 1 hour at 80° C.): 2%
- conversion to 1,5-cz-[Ln(Lig)] with hydrolysed group in the side chain, Er^III ([2]; after 1 week at 80° C.): 92%
- conversion to 1,5-cz-[Ln(Lig)], Er^III ([2]; after 1 week at 80° C.): 1%
- conversion to 1,5-cz-[Ln(Lig)] with hydrolysed group in the side chain, Er^III ([2]; after 1 hour at 80° C.): 2%
- conversion to 1,5-cz-[Ln(Lig)], Er^III ([2]; after 1 hour at 80° C.): 4%
- conversion to 1,5-cz-[Ln(Lig)] with hydrolysed group in the side chain, Eu^III ([2]; after 1 week at 80° C.): 49%
- conversion to 1,5-cz-[Ln(Lig)], Eu^III ([2]; after 1 week at 80° C.): 1%
- conversion to 1,5-cz-[Ln(Lig)] with hydrolysed group in the side chain, Eu^III ([2]; after 1 hour at 80° C.): 0%
- conversion to 1,5-cz-[Ln(Lig)], Eu^III ([2]; after 1 hour at 80° C.): 1%
- conversion to 1,5-cz-[Ln(Lig)] with hydrolysed group in the side chain, Gd^III ([2]; after 1 week at 80° C.): 57%
- conversion to 1,5-cz-[Ln(Lig)], Gd^III ([2]; after 1 week at 80° C.): 2%
- conversion to 1,5-cz-[Ln(Lig)] with hydrolysed group in the side chain, Gd^III ([2]; after 1 hour at 80° C.): 0%
- conversion to 1,5-cz-[Ln(Lig)], Gd^III ([2]; after 1 hour at 80° C.): 1%
- conversion to 1,5-cz-[Ln(Lig)] with hydrolysed group in the side chain, Ho^III ([2]; after 1 week at 80° C.): 87%
- conversion to 1,5-cz-[Ln(Lig)], Ho^III ([2]; after 1 week at 80° C.): 1%
- conversion to 1,5-cz-[Ln(Lig)] with hydrolysed group in the side chain, Ho^III ([2]; after 1 hour at 80° C.): 1%
- conversion to 1,5-cz-[Ln(Lig)], Ho^III ([2]; after 1 hour at 80° C.): 3%
- conversion to 1,5-cz-[Ln(Lig)] with hydrolysed group in the side chain, La^III ([2]; after 1 week at 80° C.): 11%
- conversion to 1,5-cz-[Ln(Lig)], La^III ([2]; after 1 week at 80° C.): 0%
- conversion to 1,5-cz-[Ln(Lig)] with hydrolysed group in the side chain, La^III ([2]; after 1 hour at 80° C.): 0%
- conversion to 1,5-cz-[Ln(Lig)], La^III ([2]; after 1 hour at 80° C.): 0%
- conversion to 1,5-cz-[Ln(Lig)] with hydrolysed group in the side chain, Lu^III ([2]; after 1 week at 80° C.): 98%
- conversion to 1,5-cz-[Ln(Lig)], Lu^III ([2]; after 1 week at 80° C.): 1%
- conversion to 1,5-cz-[Ln(Lig)] with hydrolysed group in the side chain, Lu^III ([2]; after 1 hour at 80° C.): 9%
- conversion to 1,5-cz-[Ln(Lig)], Lu^III ([2]; after 1 hour at 80° C.): 8%
- conversion to 1,5-cz-[Ln(Lig)] with hydrolysed group in the side chain, Nd^III ([2]; after 1 week at 80° C.): 23%
- conversion to 1,5-cz-[Ln(Lig)], Nd^III ([2]; after 1 week at 80° C.): 0%
- conversion to 1,5-cz-[Ln(Lig)] with hydrolysed group in the side chain, Nd^III ([2]; after 1 hour at 80° C.): 0%
- conversion to 1,5-cz-[Ln(Lig)], Nd^III ([2]; after 1 hour at 80° C.): 1%
- conversion to 1,5-cz-[Ln(Lig)] with hydrolysed group in the side chain, Pr^III ([2]; after 1 week at 80° C.): 21%
- conversion to 1,5-cz-[Ln(Lig)], Pr^III ([2]; after 1 week at 80° C.): 0%
- conversion to 1,5-cz-[Ln(Lig)] with hydrolysed group in the side chain, Pr^III ([2]; after 1 hour at 80° C.): 0%
- conversion to 1,5-cz-[Ln(Lig)], Pr^III ([2]; after 1 hour at 80° C.): 0%
- conversion to 1,5-cz-[Ln(Lig)] with hydrolysed group in the side chain, Sm^III ([2]; after 1 week at 80° C.): 44%
- conversion to 1,5-cz-[Ln(Lig)], Sm^III ([2]; after 1 week at 80° C.): 1%
- conversion to 1,5-cz-[Ln(Lig)] with hydrolysed group in the side chain, Sm^III ([2]; after 1 hour at 80° C.): 0%
- conversion to 1,5-cz-[Ln(Lig)], Sm^III ([2]; after 1 hour at 80° C.): 1%
- conversion to 1,5-cz-[Ln(Lig)] with hydrolysed group in the side chain, Tb^III ([2]; after 1 week at 80° C.): 74%
- conversion to 1,5-cz-[Ln(Lig)], Tb^III ([2]; after 1 week at 80° C.): 1%
- conversion to 1,5-cz-[Ln(Lig)] with hydrolysed group in the side chain, Tb^III ([2]; after 1 hour at 80° C.): 0%
- conversion to 1,5-cz-[Ln(Lig)], Tb^III ([2]; after 1 hour at 80° C.): 2%
- conversion to 1,5-cz-[Ln(Lig)] with hydrolysed group in the side chain, Tm^III ([2]; after 1 week at 80° C.): 94%
- conversion to 1,5-cz-[Ln(Lig)], Tm^III ([2]; after 1 week at 80° C.): 1%
- conversion to 1,5-cz-[Ln(Lig)] with hydrolysed group in the side chain, Tm^III ([2]; after 1 hour at 80° C.): 3%
- conversion to 1,5-cz-[Ln(Lig)], Tm^III ([2]; after 1 hour at 80° C.): 5%
- conversion to 1,5-cz-[Ln(Lig)] with hydrolysed group in the side chain, Yb^III ([2]; after 1 week at 80° C.): 97%
- conversion to 1,5-cz-[Ln(Lig)], Yb^III ([2]; after 1 week at 80° C.): 1%
- conversion to 1,5-cz-[Ln(Lig)] with hydrolysed group in the side chain, Yb^III ([2]; after 1 hour at 80° C.): 5%
- conversion to 1,5-cz-[Ln(Lig)], Yb^III ([2]; after 1 hour at 80° C.): 7%
SMILES: CC(C)(C#Cc1cccc(CN2CCN(CC(=O)O)CCN(Cc3cccc(CN=[N+]=[N-])n3)CCN(CC(=O)O)CC2)n1)NC(=O)OC(C)(C)C [TD1105]
